Drawing on article PMC6934184, “Selective DNA-PKcs inhibition extends the therapeutic index of localized radiotherapy and chemotherapy” (The Journal of Clinical Investigation, 2019), this text covers inhibition for one molecule.

The assay deals with T1, EPHA8 (Homo sapiens, UniProt P29322).
T1 construct: purchased Thermo Fisher Scientific (Life Technologies) SelectScreen
Nature of the assay: SelectScreen Z'LYTE. The class given is biochemical. The procedure, abridged: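 SelectScreen broad panel; activity (Z'LYTE, Adapta) plus binding formats. ATP: Km app for CSF1R Z'LYTE; 10 for CAMK1 Adapta. Readout = % per kinase.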

One may read the inhibition as the change of the read-out against control, counted positive when it falls.

T1 sequence (P29322 28-1005): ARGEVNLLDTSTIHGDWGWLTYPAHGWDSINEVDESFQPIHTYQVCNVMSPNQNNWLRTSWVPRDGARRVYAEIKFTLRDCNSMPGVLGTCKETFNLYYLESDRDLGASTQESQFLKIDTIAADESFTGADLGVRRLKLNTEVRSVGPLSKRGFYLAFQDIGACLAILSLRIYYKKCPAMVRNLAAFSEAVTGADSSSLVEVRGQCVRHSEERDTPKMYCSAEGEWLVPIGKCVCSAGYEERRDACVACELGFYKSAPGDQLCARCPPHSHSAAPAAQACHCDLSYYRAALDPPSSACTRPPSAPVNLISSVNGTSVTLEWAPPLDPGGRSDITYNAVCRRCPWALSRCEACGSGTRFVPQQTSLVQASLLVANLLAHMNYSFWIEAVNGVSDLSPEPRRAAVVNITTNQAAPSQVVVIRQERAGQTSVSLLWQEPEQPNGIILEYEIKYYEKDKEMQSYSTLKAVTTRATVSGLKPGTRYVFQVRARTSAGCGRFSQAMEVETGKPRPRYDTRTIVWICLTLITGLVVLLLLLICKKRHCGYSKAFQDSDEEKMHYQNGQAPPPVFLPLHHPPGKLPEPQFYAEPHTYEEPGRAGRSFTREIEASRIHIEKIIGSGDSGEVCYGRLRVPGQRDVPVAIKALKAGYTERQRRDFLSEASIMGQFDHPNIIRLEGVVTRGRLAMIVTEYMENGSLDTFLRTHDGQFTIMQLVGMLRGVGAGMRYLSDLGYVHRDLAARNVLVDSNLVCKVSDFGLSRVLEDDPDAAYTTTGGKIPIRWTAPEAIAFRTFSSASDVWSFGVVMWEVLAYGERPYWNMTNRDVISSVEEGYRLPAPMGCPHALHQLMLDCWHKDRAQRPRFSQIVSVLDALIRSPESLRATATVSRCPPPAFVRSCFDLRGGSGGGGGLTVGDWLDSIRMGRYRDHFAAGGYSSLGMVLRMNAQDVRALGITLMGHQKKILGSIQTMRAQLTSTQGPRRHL

On to `CN(C(=O)CN1CCOCC1)c1ccc2sc3c(-c4cccc5c(=O)cc(N6CC7CCC(C6)O7)oc45)cccc3c2c1` [NU5455], for which the inhibition at 1 µM was -13.8%.
